The numbers were not newly measured in patent publication US9227958B2, “Amorphous and crystalline forms of aprepitant and processes for the preparation thereof” (Glenmark Pharmaceuticals Limited, priority 2006, dated 2016), which cites them from elsewhere.

Each structure is given as a SMILES string.

Holding throughout (details): stated in words, background
Series [1] has as its target T1, serotonin (5-HT3) receptors (Homo sapiens, UniProt P46098).
T1 sequence (P46098 24-478): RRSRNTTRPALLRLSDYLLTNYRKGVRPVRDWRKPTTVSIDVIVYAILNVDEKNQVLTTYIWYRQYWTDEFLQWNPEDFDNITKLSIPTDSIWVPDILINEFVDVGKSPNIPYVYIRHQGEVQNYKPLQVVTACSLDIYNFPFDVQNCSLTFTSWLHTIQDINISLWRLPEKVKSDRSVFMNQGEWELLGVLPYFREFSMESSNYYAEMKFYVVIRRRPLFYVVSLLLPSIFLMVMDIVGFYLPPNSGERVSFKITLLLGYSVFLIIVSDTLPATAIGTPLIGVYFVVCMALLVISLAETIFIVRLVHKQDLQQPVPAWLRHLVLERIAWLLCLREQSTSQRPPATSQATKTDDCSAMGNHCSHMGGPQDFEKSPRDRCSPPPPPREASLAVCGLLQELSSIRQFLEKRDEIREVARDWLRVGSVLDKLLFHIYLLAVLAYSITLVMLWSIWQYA

A further series concerns corticosteroid receptors.
The subject of another series is dopamine receptors.
The target of series [2] is human substance P/neurokinin 1 (NK1) receptors (Homo sapiens, UniProt P25103).
human substance P/neurokinin 1 (NK1) receptors, sequence (P25103 whole entry): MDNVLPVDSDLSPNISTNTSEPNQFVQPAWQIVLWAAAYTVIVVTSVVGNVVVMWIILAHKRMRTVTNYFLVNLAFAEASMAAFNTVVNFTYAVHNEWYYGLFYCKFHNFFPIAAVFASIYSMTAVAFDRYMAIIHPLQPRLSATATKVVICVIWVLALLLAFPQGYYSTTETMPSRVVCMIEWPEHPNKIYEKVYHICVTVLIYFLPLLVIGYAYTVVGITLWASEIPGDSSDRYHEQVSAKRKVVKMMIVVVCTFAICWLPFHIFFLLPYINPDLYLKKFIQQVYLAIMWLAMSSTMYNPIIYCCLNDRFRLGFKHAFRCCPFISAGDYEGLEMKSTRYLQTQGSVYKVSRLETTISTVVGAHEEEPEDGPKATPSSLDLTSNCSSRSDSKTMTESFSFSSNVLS

Consider `C[C@@H](O[C@H]1OCCN(Cc2n[nH]c(=O)[nH]2)[C@H]1c1ccc(F)cc1)c1cc(C(F)(F)F)cc(C(F)(F)F)c1` [Aprepitant], for which, in series [1], the “affinity for serotonin (5-HT3) receptors” value is “little or no affinity”. The “affinity for corticosteroid receptors” value with corticosteroid receptors is recorded as “little or no affinity”. Also, in the series with dopamine receptors, the “affinity for dopamine receptors” value is “little or no affinity”. In series [2], the “affinity / antagonism at human substance P/neurokinin 1 (NK1) receptors” value is given as “selective high-affinity antagonist”.
